In patent US20060025430A1, “Novel irreversible inhibitors of epidermal growth factor receptor tyrosine kinase and uses thereof for therapy and diagnosis” (priority 2003, published 2006):

Biological target: PDGFR (Homo sapiens, UniProt P09619)
Assay: Selective-inhibition assay in […] cells (receptor phosphotyrosine, Western blot)
Assay type: cell-based
Settings: […] cells expressing PDGFR, 1 hour incubation, PDGFββ stimulation
Method: NIH3T3 cells transformed with either the EGFR (DHER14 cells), with the HER1-HER2 chimera (CSH12 cells) or with the PDGFR (NIH/PDGFR cells), decribed by Lee et al.; 1989, Honegger et al., 1988; and Shawver et al. 1997, and A431 human epidermoid vulval carcinoma cells were grown in Dulbecco's modified Eagle's medium (DMEM) (Biological industries, Kibbuts Beit Haemek, Israel) supplemented with 10% fetal calf serum and antibiotics (penicillin […], streptomycin 100 mg/liter) at 37° C. in 5% CO2.
Selective-inhibition assay: CSH12, DHER14 and […] cells, expressing either the HER1-HER2 chimera, EGFR or PDGFR, respectively, were used for the determination of inhibitory selectivity. Cells (7.5×10^4) were grown in 6-well plates (35 mm diameter, Nalge Nunc) for 24 hours and then incubated in 0.25% FCS-containing medium for an additional 24 hours to about 90% confluence. Duplicate sets of cells were treated with the tested compounds at varying concentrations for 1 hour. The final concentration of the vehicle in the medium was 0.05% DMSO, 0.1% EtOH. After removal of the inhibitor from the medium, PBS wash (×2) and addition of 0.25% serum-containing medium to the wells, the cells were stimulated with either 20 ng/mL human EGF for 5 minutes (CSH12 and DHER14 cells) or 50 ng/ml human PDGFββ for 10 minutes ([…] cells) at 37° C. […]

Chain of PDGFR (P09619 whole entry): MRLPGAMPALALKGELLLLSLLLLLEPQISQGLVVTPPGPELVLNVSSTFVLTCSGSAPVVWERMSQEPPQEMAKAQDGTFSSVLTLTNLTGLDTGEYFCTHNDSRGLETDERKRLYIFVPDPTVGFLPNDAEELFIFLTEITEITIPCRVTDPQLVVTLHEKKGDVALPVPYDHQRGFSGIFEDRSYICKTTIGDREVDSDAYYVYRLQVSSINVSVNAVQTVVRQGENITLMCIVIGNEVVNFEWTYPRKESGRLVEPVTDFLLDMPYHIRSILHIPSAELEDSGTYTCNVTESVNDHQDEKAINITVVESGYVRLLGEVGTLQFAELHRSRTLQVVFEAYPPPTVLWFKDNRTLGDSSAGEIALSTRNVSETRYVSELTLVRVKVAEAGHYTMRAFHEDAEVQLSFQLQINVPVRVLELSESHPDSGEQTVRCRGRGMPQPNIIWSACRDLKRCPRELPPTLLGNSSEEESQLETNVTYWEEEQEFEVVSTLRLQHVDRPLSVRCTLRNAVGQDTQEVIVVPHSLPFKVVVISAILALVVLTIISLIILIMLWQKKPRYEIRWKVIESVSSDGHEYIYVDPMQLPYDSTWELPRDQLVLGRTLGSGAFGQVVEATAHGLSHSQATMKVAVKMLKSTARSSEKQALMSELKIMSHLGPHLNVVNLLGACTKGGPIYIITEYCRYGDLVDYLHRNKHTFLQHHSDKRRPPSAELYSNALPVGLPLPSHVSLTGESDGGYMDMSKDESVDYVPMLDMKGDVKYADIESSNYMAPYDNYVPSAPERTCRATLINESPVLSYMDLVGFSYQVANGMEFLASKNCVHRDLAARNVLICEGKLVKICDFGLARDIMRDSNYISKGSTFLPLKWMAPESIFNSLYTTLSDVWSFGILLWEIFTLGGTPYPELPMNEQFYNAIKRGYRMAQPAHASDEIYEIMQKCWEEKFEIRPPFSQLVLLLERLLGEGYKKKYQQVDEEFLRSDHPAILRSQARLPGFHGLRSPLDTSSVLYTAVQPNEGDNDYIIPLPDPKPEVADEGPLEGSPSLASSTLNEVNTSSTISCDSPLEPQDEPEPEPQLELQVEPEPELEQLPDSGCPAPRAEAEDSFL

IC50: > 1000 nM
SMILES: O=C(CCl)Nc1ccc2ncnc(Nc3cc(Cl)c(Cl)cc3F)c2c1 [Compound 5, N-{4-[(4,5-Dichloro-2-fluoro-phenyl)amino]-quinazolin-6-yl}-2-chloroacetamide]
